Like-named read-outs stand apart in the source and are kept apart here.
Assays:
GT1a H77 / 1a Wild type [1] = biological target: T1, GT1a H77 / 1a Wild type (Hepatitis C virus (isolate H77), UniProt P27958); test: cell-based; parameters: species or system Huh-7; conditions: SD, n = 3; read-out: HCV stable replicons in 0% human plasma, Mean EC50 ± SD
T1 construct: in subgenomic replicon
Source text: (§1) Five of these nine cell lines have been described previously, including those transfected with genotypes 1a H77, 1b Con1, 3a, 4a, and 6a ([28]). […] The genotype 2b and 6e NS3 sequences were each synthetically constructed based on a consensus sequence derived from the alignment of 15 genotype 2b and 4 genotype 6e sequences, respectively. All replicon constructs were bicistronic subgenomic replicons similar to those described by Bartenschlager and coworkers, and the replicon cell lines were generated by introducing these constructs into cells of an Huh-7 human hepatoma-derived cell line ([50]). The inhibitory effect of the PIs on HCV replication in replicon cells was determined in Dulbecco's modified Eagle medium containing 5% fetal bovine serum with or without 40% human plasma (Bioreclamation, Westbury, NY). The EC50s were determined using nonlinear regression curve fitting as described previously ([33]).

GT1b Con1 / 1b Wild type [2] = biological target: T2, GT1b Con1 / 1b Wild type (Hepatitis C virus (isolate Con1), UniProt Q9WMX2); test: cell-based; parameters: species or system Huh-7; conditions: SD, n = 3; read-out: HCV stable replicons in 0% human plasma, Mean EC50 ± SD
T2 construct: in subgenomic replicon
Source text: as §1

GT1a H77 / 1a Wild type [3] = biological target: T1, GT1a H77 / 1a Wild type; test: cell-based; parameters: species or system Huh-7; conditions: SD, n = 3
Description: (§2) Mutagenesis was performed using a Change-IT multiple-mutation site-directed mutagenesis kit (USB, Cleveland, OH) or by cloning a synthesized DNA fragment encoding the amino acid substitution(s). The genotype 1a and 1b replicon shuttle vectors used for the introduction of the substitutions of interest in the NS3, NS5A, or NS5B gene for transient-transfection assays have been described previously ([28], [33]). The replicon shuttle vectors used for the introduction of substitutions in NS3 genes from other genotypes were similar to the stable replicon cell line constructs described above, except for the absence of the neo gene. After mutagenesis, the plasmids were linearized and RNA was transcribed and then used to transfect Huh-7 cells. Inhibition of HCV replication by the HCV inhibitors was measured by luciferase assay, as described above. Replication efficiency was calculated as a percentage of wild-type replication, as described previously ([28]).

GT1b Con1 / 1b Wild type [4] = biological target: T2, GT1b Con1 / 1b Wild type; test: cell-based; parameters: species or system Huh-7; conditions: SD, n = 3
Description: as §2

1a A156T = biological target: T3, 1a A156T (Hepatitis C virus (isolate H77), UniProt P27958, A1182T); test: Luciferase assay of HCV replication in transient-transfection replicons with wild-type or substituted NS3 (at least 3 transfections).; type: cell-based, Huh-7; conditions: SD, n = 3
T3 construct: in transient replicon
Description: as §2

1a D168A = biological target: T4, 1a D168A (Hepatitis C virus (isolate H77), UniProt P27958, D1194A); test: as above; type: cell-based, Huh-7; conditions: SD, n = 3
T4 construct: in transient replicon
Description: as §2

1a D168E = biological target: T5, 1a D168E (Hepatitis C virus (isolate H77), UniProt P27958, D1194E); test: as above; type: cell-based, Huh-7; conditions: SD, n = 3
T5 construct: in transient replicon
Description: as §2

1a D168V = biological target: T6, 1a D168V (Hepatitis C virus (isolate H77), UniProt P27958, D1194V); test: as above; type: cell-based, Huh-7; conditions: SD, n = 3
T6 construct: in transient replicon
Description: as §2

1a F43L = biological target: T7, 1a F43L (Hepatitis C virus (isolate H77), UniProt P27958, F1069L); test: as above; type: cell-based, Huh-7; conditions: SD, n = 3
T7 construct: in transient replicon
Description: as §2

1a Q80K = biological target: T8, 1a Q80K (Hepatitis C virus (isolate H77), UniProt P27958, Q1106K); test: as above; type: cell-based, Huh-7; conditions: SD, n = 3
T8 construct: in transient replicon
Description: as §2

1a R155K = biological target: T9, 1a R155K (Hepatitis C virus (isolate H77), UniProt P27958, R1181K); test: as above; type: cell-based, Huh-7; conditions: SD, n = 3
T9 construct: in transient replicon
Description: as §2

1a T54S = biological target: T10, 1a T54S (Hepatitis C virus (isolate H77), UniProt P27958, T1080S); test: as above; type: cell-based, Huh-7; conditions: SD, n = 3
T10 construct: in transient replicon
Description: as §2

1a V36M = biological target: T11, 1a V36M (Hepatitis C virus (isolate H77), UniProt P27958, V1062M); test: as above; type: cell-based, Huh-7; conditions: SD, n = 3
T11 construct: in transient replicon
Description: as §2

1a V55I = biological target: T12, 1a V55I (Hepatitis C virus (isolate H77), UniProt P27958, V1081I); test: as above; type: cell-based, Huh-7; conditions: SD, n = 3
T12 construct: in transient replicon
Description: as §2

1a Y56H = biological target: T13, 1a Y56H (Hepatitis C virus (isolate H77), UniProt P27958, Y1082H); test: as above; type: cell-based, Huh-7; conditions: SD, n = 3
T13 construct: in transient replicon
Description: as §2

1b A156T = biological target: T14, 1b A156T (Hepatitis C virus (isolate Con1), UniProt Q9WMX2, A1182T); test: as above; type: cell-based, Huh-7; conditions: SD, n = 3
T14 construct: in transient replicon
Description: as §2

1b A156V = biological target: T15, 1b A156V (Hepatitis C virus (isolate Con1), UniProt Q9WMX2, A1182V); test: as above; type: cell-based, Huh-7; conditions: SD, n = 3
T15 construct: in transient replicon
Description: as §2

1b D168A = biological target: T16, 1b D168A (Hepatitis C virus (isolate Con1), UniProt Q9WMX2, D1194A); test: as above; type: cell-based, Huh-7; conditions: SD, n = 3
T16 construct: in transient replicon
Description: as §2

1b D168E = biological target: T17, 1b D168E (Hepatitis C virus (isolate Con1), UniProt Q9WMX2, D1194E); test: as above; type: cell-based, Huh-7; conditions: SD, n = 3
T17 construct: in transient replicon
Description: as §2

1b D168V = biological target: T18, 1b D168V (Hepatitis C virus (isolate Con1), UniProt Q9WMX2, D1194V); test: as above; type: cell-based, Huh-7; conditions: SD, n = 3
T18 construct: in transient replicon
Description: as §2

1b R155K = biological target: T19, 1b R155K (Hepatitis C virus (isolate Con1), UniProt Q9WMX2, R1181K); test: as above; type: cell-based, Huh-7; conditions: SD, n = 3
T19 construct: in transient replicon
Description: as §2

1b T54A = biological target: T20, 1b T54A (Hepatitis C virus (isolate Con1), UniProt Q9WMX2, T1080A); test: as above; type: cell-based, Huh-7; conditions: SD, n = 3
T20 construct: in transient replicon
Description: as §2

1b V170A = biological target: T21, 1b V170A (Hepatitis C virus (isolate Con1), UniProt Q9WMX2, V1196A); test: as above; type: cell-based, Huh-7; conditions: SD, n = 3
T21 construct: in transient replicon
Description: as §2

1b V55A = biological target: T22, 1b V55A (Hepatitis C virus (isolate Con1), UniProt Q9WMX2, V1081A); test: as above; type: cell-based, Huh-7; conditions: SD, n = 3
T22 construct: in transient replicon
Description: as §2

2a A156T = biological target: T23, 2a A156T (Hepatitis C virus JFH-1, UniProt Q99IB8, A1186T); test: as above; type: cell-based, Huh-7; conditions: SD, n = 3
T23 construct: in transient replicon
Description: as §2

2a A156V = biological target: T24, 2a A156V (Hepatitis C virus JFH-1, UniProt Q99IB8, A1186V); test: as above; type: cell-based, Huh-7; conditions: SD, n = 3
T24 construct: in transient replicon
Description: as §2

2a D168A = biological target: T25, 2a D168A (Hepatitis C virus JFH-1, UniProt Q99IB8, D1198A); test: as above; type: cell-based, Huh-7; conditions: SD, n = 3
T25 construct: in transient replicon
Description: as §2

2a D168E = biological target: T26, 2a D168E (Hepatitis C virus JFH-1, UniProt Q99IB8, D1198E); test: as above; type: cell-based, Huh-7; conditions: SD, n = 3
T26 construct: in transient replicon
Description: as §2

2a D168V = biological target: T27, 2a D168V (Hepatitis C virus JFH-1, UniProt Q99IB8, D1198V); test: as above; type: cell-based, Huh-7; conditions: SD, n = 3
T27 construct: in transient replicon
Description: as §2

5a D168E = biological target: T28, 5a D168E (Hepatitis C virus SA13, UniProt O91936, D1195E); test: as above; type: cell-based, Huh-7; conditions: SD, n = 3
T28 construct: in genotype 2a JFH-1 chimeric transient replicon
Description: as §2

5a D168H = biological target: T29, 5a D168H (Hepatitis C virus SA13, UniProt O91936, D1195H); test: as above; type: cell-based, Huh-7; conditions: SD, n = 3
T29 construct: in genotype 2a JFH-1 chimeric transient replicon
Description: as §2

[5] = system: HCV genotype 1a replicon cells; test: Drug-resistant colony selection in replicon cells; type: cell-based, Hepatitis C virus; conditions: 10× EC50, about 3 weeks
Source text: (§3) . After approximately 3 weeks of treatment, the surviving replicon colonies in one plate for each selection condition were stained with crystal violet and counted, whereas approximately 20 to 30 colonies in a replicate plate or most of the colonies, if less than 20 colonies survived the selection, were picked and further expanded for genotyping. The expanded colonies were lysed in CellsDirect lysis buffer (Invitrogen, MA), and the NS3-coding region from each colony was amplified by reverse transcription-PCR and sequenced. For genotype 1a, 1b, 2a, and 5a colonies, the full-length NS3 sequence was determined, whereas for colonies of the chimeric replicon containing the N-terminal region of NS3 from genotype 2b, 3a, 4a, or 6a, the sequence encoding the NS3 N-terminal region was determined. We defined a substitution in a replicon to be an amino acid difference in a sequence from a posttreatment sample relative to the sequence of the corresponding untreated sample. For resistance selection studies, NS3 substitutions detected at the following amino acid positions associated with resistance to the HCV PI class in >2 colonies in each replicon selection are reported: 36, 43, 54, 55, 56, 80, 122, 155, 156, and 168. In addition, substitutions detected at other amino acid positions in the NS3 protease domain in >2 colonies in each replicon selection are also reported.
(§4) […]. The drug-resistant colonies were fixed and stained with crystal violet, and the number of colonies was determined.

[6] = system: HCV genotype 1b replicon cells; test: Drug-resistant colony selection in replicon cells; type: cell-based, Hepatitis C virus; conditions: 10× EC50, about 3 weeks
Source text: as §3, §4

[7] = system: genotype 1b Con1 replicon cells; conditions: genotype 1b replicon cells; cited from earlier work

SMILES: Cc1cnc(C(=O)N[C@H]2CCCCC/C=C\[C@@H]3C[C@@]3(C(=O)NS(=O)(=O)C3CC3)NC(=O)[C@@H]3C[C@@H](Oc4nc5ccccc5c5ccccc45)CN3C2=O)cn1 [Paritaprevir, paritaprevir (ABT-450)]
- EC50 (GT1a H77 / 1a Wild type [1]): 1 ± 0.33 nM
- EC50 (GT1b Con1 / 1b Wild type [2]): 0.21 ± 0.07 nM
- EC50 (GT1a H77 / 1a Wild type [3]): 1.4 ± 0.4 nM
- EC50 (GT1b Con1 / 1b Wild type [4]): 0.11 ± 0.05 nM
- EC50 (1a A156T): 24 ± 3 nM
- EC50 (1a D168A): 70 ± 9 nM
- EC50 (1a D168E): 20 ± 0.7 nM
- EC50 (1a D168V): 135 ± 21 nM
- EC50 (1a F43L): 27 ± 12 nM
- EC50 (1a Q80K): 3.9 ± 0.3 nM
- EC50 (1a R155K): 51 ± 8 nM
- EC50 (1a T54S): 0.54 ± 0.01 nM
- EC50 (1a V36M): 3 ± 0.3 nM
- EC50 (1a V55I): 1.4 ± 0.14 nM
- EC50 (1a Y56H): 4.1 ± 1.1 nM
- EC50 (1b A156T): 0.81 ± 0.13 nM
- EC50 (1b A156V): 2.3 ± 0.53 nM
- EC50 (1b D168A): 3 ± 0.2 nM
- EC50 (1b D168E): 0.48 ± 0.05 nM
- EC50 (1b D168V): 17 ± 2 nM
- EC50 (1b R155K): 4.4 ± 0.1 nM
- EC50 (1b T54A): 0.09 ± 0.01 nM
- EC50 (1b V170A): 0.09 ± 0.03 nM
- EC50 (1b V55A): 0.07 ± 0.001 nM
- EC50 (2a A156T): 29 ± 2.8 nM
- EC50 (2a A156V): 37 ± 1.2 nM
- EC50 (2a D168A): 306 ± 34 nM
- EC50 (2a D168E): 89 ± 15 nM
- EC50 (2a D168V): 228 ± 32 nM
- EC50 (5a D168E): 7.7 ± 1.7 nM
- EC50 (5a D168H): 184 ± 65 nM

SMILES: COC(=O)N[C@H](C(=O)N1CCC[C@H]1c1nc2cc([C@H]3CC[C@H](c4cc5nc([C@@H]6CCCN6C(=O)[C@@H](NC(=O)OC)[C@@H](C)OC)[nH]c5cc4F)N3c3cc(F)c(N4CCC(c5ccc(F)cc5)CC4)c(F)c3)c(F)cc2[nH]1)[C@@H](C)OC [Pibrentasvir, reference compound]
- Colony survival [5]: 0.0065%
- Colony survival [6]: 0%
- Colony survival ([6]; listed as pibrentasvir): no genotype 1b replicon cells survived
- EC50 [7]: 0.0043 nM

— article PMC5740381 (Antimicrobial Agents and Chemotherapy, 2017)
